Experimental data as given in patent US20230399314A1, “CD73 INHIBITOR AND USE THEREOF” (WUHAN HUMANWELL INNOVATIVE DRUG RESEARCH AND DEVELOPMENT …, priority 2020, published 2023).

Columns and labels:
[1] = molecular target: Human-CD73 enzyme (Homo sapiens (Human), UniProt P21589); experiment: In vitro inhibitory activity to recombinant human CD73 enzyme (ATP-GLO); type: biochemical; settings: Human-CD73 0.1 μg/mL, AMP 100 μM
Protocol: Human-CD73 (Novoprotein; C446) was diluted with Tris-MgCl2 buffer to form a stock solution (3×), which was placed in a 96-well plate according to 20 μL/well to obtain a final concentration of 0.1 μg/mL. The compound was diluted with Tris-MgCl2 buffer to form a stock solution (3×) of an appropriate concentration gradient, the compound solution was added to the above 96-well plate according to 20 μL/well and uniformly mixed with the Human-CD73 solution, and the mixture was incubated at the room temperature for 30 min. Meanwhile, a positive reference group (without the compound) and a negative reference group (without CD73) were set. AMP (Sigma; A1752-5G) was diluted with Tris-MgCl2 buffer to form a stock solution (3×), which was added to the above 96-well plate according to 20 μL/well to obtain a final concentration of 100 μM, and the mixture was uniformly mixed and incubated at 37° C. for 60 min; ATP (Sigma; A7699-1G) was diluted with Tris-MgCl2 buffer to form a stock solution (7×), which was added to the above 96-well plate according to 10 μL/well to obtain a final concentration of 100 μM, and the mixture was uniformly mixed, incubated for 5 min, and tested by using an ATP-GLO kit (Promega; G7573).
(§1) Human-CD73 inhibition rates of the compound at different concentrations were calculated according to the following formula, the concentration of the compound was taken as the X-axis, the inhibition rate was taken as the Y-axis, and an IC50 value of the compound in inhibiting Human-CD73 was calculated by using Prism software.

[2] = molecular target: CD73 bound to the surfaces of A375 cells (Homo sapiens (Human), UniProt P21589); experiment: Inhibitory activity to CD73 enzyme bound to the surfaces of human melanoma A375 cells; type: cell-based; settings: AMP 200 μM, 16 h
Protocol: The compound was diluted with serum-free DMEM to form a stock solution (5×) of an appropriate concentration gradient, the compound solution was added to the cells in the above 96-well plate according to 20 μL/well, and the mixture was placed in an incubator and pre-incubated for 30 min.
as §1, with “A375-bound CD73” for “Human-CD73”

[3] = system: Human CD4+ T cells; experiment: Relieving AMP-induced proliferation inhibition of human CD4+ T cells (CCK8); type: cell-based; settings: AMP 0.3 mM, day 5
Protocol: On day 1 of the experiment, CD4^+ T cells (Allcells Shanghai, PB009-2F-C) were thawed, and inoculated into two replicate wells according to 3×10^4 cells/well and 50 μL/well. The compound was diluted with a complete medium to form a stock solution (4×) of an appropriate concentration gradient, the compound solution was added to the above cells according to 50 μL/well, and the mixture was pre-incubated at 37° C. for 30 min. […] Meanwhile, a positive reference group (Human CD4^+ T+IL-2+CD3/CD28 beads) and a negative reference group (Human CD4^+ T+IL-2+CD3/CD28 beads+AMP) were set. AMP (Sigma; A1752-5G) was diluted with a complete medium to form an AMP solution (4×), the AMP solution was added to the above cells according to 50 μL/well, the final concentration was 0.3 mM, and the mixture was incubated at 37° C. On day 3 of the experiment, the AMP solution was added to the above plate according to 20 μL/well, and the final concentration was 0.3 mM. On day 5, the proliferation of the cells was detected by using a CCK8 kit (DojinDO; CK04).
Inhibition rates of the compound at different concentrations in relieving AMP-induced proliferation inhibition of CD4^+ T cells were calculated according to the following formula, the concentration of the compound was taken as the X-axis, the inhibition rate was taken as the Y-axis, and an EC50 value of the compound in relieving the AMP-induced proliferation inhibition of CD4^+ T cells was calculated by using Prism software.

[4] = Pharmacokinetic test on mice; type: in vivo, male ICR mice; settings: for pharmacokinetic properties compared to the reference compounds: mice; for Vd: read-out: Vz
Protocol: (§2) In a pharmacokinetic test on mice, male ICR mice of 20 g to 25 g were used and fasted overnight. 3 mice were selected for orally intragastric administration (10 mg/kg). Before administration, and 15 min, 30 min, 1 h, 2 h, 4 h, 8 h, and 24 h after administration, blood was sampled from each mouse. Another 3 mice were selected for intravenous injection administration (3 mg/kg), and before administration, and 15 min, 30 min, 1 h, 2 h, 4 h, 8 h, and 24 h after administration, blood was sampled from each mouse. The blood sample was centrifuged at 6,800 g and 2 to 8° C. for 6 min, and plasma was collected and stored at −80° C. The plasma of each time point was vortex-mixed for 1 min with an acetonitrile solution containing the internal standard with a volume 3-5 times that of the plasma of each time point, and centrifuged at 13,000 rpm and 4° C. for 10 min, a supernatant was collected and mixed with water with a volume 3 times that of the supernatant, and an appropriate amount of the mixed solution was used for LC-MS/MS analysis. The main pharmacokinetic parameters were analyzed by using a WinNonlin 7.0 non-compartmental model.

[5] = Pharmacokinetic test on dogs; type: in vivo, male Beagle dogs
Protocol: as §2
In a pharmacokinetic test on dogs, male Beagle dogs of 8 to 10 kg were used and fasted overnight. 3 Beagle dogs were selected for orally intragastric administration (5 mg/kg). Another 3 Beagle dogs were selected for intravenous injection administration (1 mg/kg). Other operations were the same as the pharmacokinetic test on mice.

[6] = mouse, orally intragastric 10 mg/kg
[7] = male, ICR, plasma, po, mouse, orally intragastric 10 mg/kg
[8] = male, ICR, plasma, po, mouse, orally intragastric 10 mg/kg, read-out: AUC0-t
[9] = male, ICR, plasma, po, mouse, orally intragastric 10 mg/kg, read-out: Cmax
[10] = male, ICR, plasma, po, mouse, orally intragastric 10 mg/kg, read-out: Tmax
[11] = male, ICR, plasma, mouse, intravenous injection 3 mg/kg
[12] = male, ICR, plasma, mouse, intravenous injection 3 mg/kg, read-out: AUC0-t
[13] = male, Beagle, plasma, po, dog, orally intragastric 5 mg/kg
[14] = male, Beagle, plasma, dog, intravenous injection 1 mg/kg

Human-CD73 enzyme, sequence (P21589 27-574): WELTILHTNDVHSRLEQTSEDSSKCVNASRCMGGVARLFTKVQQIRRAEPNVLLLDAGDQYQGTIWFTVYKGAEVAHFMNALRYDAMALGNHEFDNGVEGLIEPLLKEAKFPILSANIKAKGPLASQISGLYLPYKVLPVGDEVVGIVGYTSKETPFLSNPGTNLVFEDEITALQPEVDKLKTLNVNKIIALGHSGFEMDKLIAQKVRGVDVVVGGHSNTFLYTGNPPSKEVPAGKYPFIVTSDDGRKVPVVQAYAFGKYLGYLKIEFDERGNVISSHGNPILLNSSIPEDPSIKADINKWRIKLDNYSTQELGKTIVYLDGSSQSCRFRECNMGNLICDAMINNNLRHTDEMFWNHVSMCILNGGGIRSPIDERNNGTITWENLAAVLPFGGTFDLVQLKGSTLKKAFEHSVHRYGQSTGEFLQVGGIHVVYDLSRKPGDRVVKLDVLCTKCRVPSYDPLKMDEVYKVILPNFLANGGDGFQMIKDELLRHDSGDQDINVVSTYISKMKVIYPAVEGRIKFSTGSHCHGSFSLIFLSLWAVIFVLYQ
CD73 bound to the surfaces of A375 cells, sequence (P21589 27-574): as above

Structure (SMILES): O=c1[nH]cc(-c2cc([C@H]3C[C@@H]3CC(F)(F)F)c(Cl)nn2)c(=O)[nH]1 [Compound 9, 5-(6-chloro-5-((1S,2R)-2-(2,2,2-trifluoroethyl)cyclopropyl)pyridazin-3-yl)pyrimidine-2,4(1H,3H)-dione]
- IC50 [1]: 8.17 nM
- IC50 [2]: 5.56 nM
- EC50 [3]: 32.6 nM
- pharmacokinetic properties compared to the reference compounds [4]: significantly improved
- AUC(0-t) [4, 6]: 65441 ng·h/mL
- Cmax [4, 6]: 6601.90 ng/mL
- T1/2 [4, 6]: 4.87 h
- Tmax [4, 6]: 1.17 h

Structure (SMILES): CC(O)[C@H]1C[C@@H]1c1cc(-c2c[nH]c(=O)[nH]c2=O)nnc1Cl (stereo partly drawn) [Compound 6, 5-(6-chloro-5-((1S,2S)-2-(1-hydroxyethyl)cyclopropyl)pyridazin-3-yl)pyrimidine-2,4(1H,3H)-dione]
- IC50 [1]: 24.5 nM

Structure (SMILES): CC(C)(O)[C@H]1C[C@@H]1c1cc(-c2c[nH]c(=O)[nH]c2=O)nnc1Cl [Compound 5, 5-(6-chloro-5-((1S,2S)-2-(2-hydroxypropan-2-yl)cyclopropyl)pyridazin-3-yl)pyrimidine-2,4(1H,3H)-dione]
- IC50 [1]: 11.6 nM

Structure (SMILES): CC(C)OC[C@H]1C[C@@H]1c1cc(-c2c[nH]c(=O)[nH]c2=O)nnc1Cl [Compound 17, 5-(6-chloro-5-((1S,2S)-2-(isopropoxymethyl)cyclopropyl)pyridazin-3-yl)-1H-pyrimidine-2,4-dione]
- IC50 [1]: 164 nM

Structure (SMILES): O=c1[nH]cc(-c2cc([C@H]3C[C@@H]3COC(F)(F)F)c(Cl)nn2)c(=O)[nH]1 [Compound 11, 5-(6-chloro-5-((1S,2S)-2-((trifluoromethoxy)methyl)cyclopropyl)pyridazin-3-yl)pyrimidine-2,4(1H,3H)-dione]
- EC50 ([3]; Homo sapiens, 120 h): 169 nM
- half-life [4, 7]: 3.06 h
- AUC(0-t) [4, 8]: 36200 ng·h/mL
- Cmax [4, 9]: 5530 ng/mL
- Tmax [4, 10]: 0.67 h
- clearance [4, 11]: 7.83 mL/min/kg
- half-life [4, 11]: 3.72 h
- AUC(0-t) [4, 12]: 6950 ng·h/mL
- Vd [4, 11]: 2.57 L/kg
- pharmacokinetic properties compared to the reference compounds [4]: significantly improved
- exposure compared to the reference compounds ([5]; dogs): much higher
- AUC(0-t) [5, 13]: 16600 ng·h/mL
- Cmax [5, 13]: 5710 ng/mL
- Tmax [5, 13]: 0.83 h
- half-life [5, 13]: 2.27 h
- AUC(0-t) [5, 14]: 2100 ng·h/mL
- clearance [5, 14]: 8.83 mL/min/kg
- half-life [5, 14]: 0.89 h
- Vd ([5]; male, Beagle, plasma, dog, intravenous injection 1 mg/kg, read-out: Vz): 0.66 L/kg

Structure (SMILES): O=c1[nH]cc(-c2cc([C@H]3C[C@@H]3C(F)(F)F)c(Cl)nn2)c(=O)[nH]1 [Compound 3, 5-(6-chloro-5-((1S,2S)-2-(trifluoromethyl)cyclopropyl)pyridazin-3-yl)pyrimidine-2,4(1H,3H)-dione]
- IC50 [2]: 26.8 nM
- EC50 ([3]; Homo sapiens, 120 h): 111 nM
- half-life [4, 7]: 2.7 h
- AUC(0-t) [4, 8]: 107000 ng·h/mL
- Cmax [4, 9]: 12100 ng/mL
- Tmax [4, 10]: 0.83 h
- clearance [4, 11]: 3.67 mL/min/kg
- half-life [4, 11]: 3.72 h
- AUC(0-t) [4, 12]: 13800 ng·h/mL
- Vd [4, 11]: 1.17 L/kg
- pharmacokinetic properties compared to the reference compounds [4]: significantly improved

Structure (SMILES): O=c1[nH]cc(-c2cc([C@H]3C[C@@H]3CC(F)F)c(Cl)nn2)c(=O)[nH]1 [Compound 18, 5-(6-chloro-5-((1S,2R)-2-(2,2-difluoroethyl)cyclopropyl)pyridazin-3-yl)pyrimidine-2,4(1H,3H)-dione]
- IC50 [2]: 17.6 nM
- half-life [4, 7]: 1.43 h
- AUC(0-t) [4, 8]: 9800 ng·h/mL
- Cmax [4, 9]: 4410 ng/mL
- Tmax [4, 10]: 0.42 h
- clearance [4, 11]: 10.3 mL/min/kg
- half-life [4, 11]: 1.82 h
- AUC(0-t) [4, 12]: 5070 ng·h/mL
- Vd [4, 11]: 1.5 L/kg

Structure (SMILES): CCOC[C@H]1C[C@@H]1c1cc(-c2c[nH]c(=O)[nH]c2=O)nnc1Cl [Compound 16, 5-(6-chloro-5-((1S,2S)-2-(ethoxymethyl)cyclopropyl)pyridazin-3-yl)-1H-pyrimidine-2,4-dione]
- IC50 [1]: 173 nM

Structure (SMILES): O=c1[nH]cc(-c2cc([C@@H]3C[C@H]3CF)c(Cl)nn2)c(=O)[nH]1 [Compound 8, 5-(6-chloro-5-((1R,2R)-2-(fluoromethyl)cyclopropyl)pyridazin-3-yl)pyrimidine-2,4(1H,3H)-dione]
- IC50 [1]: 16.5 nM

Structure (SMILES): Cc1nnc(-c2c[nH]c(=O)[nH]c2=O)cc1[C@H]1C[C@@H]1CF [Compound 20, 5-(5-((1S,2S)-2-(fluoromethyl)cyclopropyl)-6-methylpyridazin-3-yl)pyrimidine-2,4(1H,3H)-dione]
- IC50 [1]: 9.55 nM

Structure (SMILES): COC[C@H]1C[C@@H]1c1cc(-c2c[nH]c(=O)[nH]c2=O)nnc1Cl [Compound 12, 5-(6-chloro-5-((1S,2S)-2-(methoxymethyl)cyclopropyl)pyridazin-3-yl)pyrimidine-2,4(1H,3H)-dione]
- IC50 [1]: 15.4 nM

Structure (SMILES): N#Cc1nnc(-c2c[nH]c(=O)[nH]c2=O)cc1[C@H]1C[C@@H]1C(F)(F)F [Compound 15, 6-(2,4-dioxo-1H-pyrimidin-5-yl)-4-((1S,2S)-2-(trifluoromethyl)cyclopropyl)pyridazine-3-carbonitrile]
- IC50 [1]: 123 nM

Structure (SMILES): Cc1nnc(-c2c[nH]c(=O)[nH]c2=O)cc1[C@H]1C[C@@H]1C(F)(F)F [Compound 7, 5-(6-methyl-5-((1S,2S)-2-(trifluoromethyl)cyclopropyl)pyridazin-3-yl)pyrimidine-2,4(1H,3H)-dione]
- IC50 [1]: 32.1 nM
- IC50 [2]: 54.9 nM

Structure (SMILES): O=c1[nH]cc(-c2cc([C@@H]3C[C@H]3CC(F)F)c(Cl)nn2)c(=O)[nH]1 [Compound 19, 5-(6-chloro-5-((1R,2S)-2-(2,2-difluoroethyl)cyclopropyl)pyridazin-3-yl)pyrimidine-2,4(1H,3H)-dione]
- IC50 [1]: 1250 nM

Structure (SMILES): Cc1nnc(-c2c[nH]c(=O)[nH]c2=O)cc1[C@H]1C[C@@H]1C(F)F [Reference compound 1, 5-(5-((1S,2S)-2-(difluoromethyl)cyclopropyl)-6-methylpyridazin-3-yl)pyrimidine-2,4(1H,3H)-dione, reference compound]
- IC50 [1]: 12.5 nM
- IC50 [2]: 247 nM
- half-life [4, 7]: 1.17 h
- AUC(0-t) [4, 8]: 821 ng·h/mL
- Cmax [4, 9]: 1150 ng/mL
- Tmax [4, 10]: 0.25 h
- clearance [4, 11]: 85.2 mL/min/kg
- half-life [4, 11]: 1.99 h
- AUC(0-t) [4, 12]: 585 ng·h/mL
- Vd [4, 11]: 14.7 L/kg

Structure (SMILES): O=c1[nH]cc(-c2cc([C@@H]3C[C@H]3CC(F)(F)F)c(Cl)nn2)c(=O)[nH]1 [Compound 13, 5-(6-chloro-5-((1R,2S)-2-(2,2,2-trifluoroethyl)cyclopropyl)pyridazin-3-yl)pyrimidine-2,4(1H,3H)-dione]
- IC50 [1]: 6870 nM
